Bounds are passed on as bounds.

For data set [1], the target named is T1, Recombinant human protein tyrosine phosphatase 1B (Homo sapiens, UniProt P18031).
T1 construct: purchased UBI
T1 sequence (P18031 1-435): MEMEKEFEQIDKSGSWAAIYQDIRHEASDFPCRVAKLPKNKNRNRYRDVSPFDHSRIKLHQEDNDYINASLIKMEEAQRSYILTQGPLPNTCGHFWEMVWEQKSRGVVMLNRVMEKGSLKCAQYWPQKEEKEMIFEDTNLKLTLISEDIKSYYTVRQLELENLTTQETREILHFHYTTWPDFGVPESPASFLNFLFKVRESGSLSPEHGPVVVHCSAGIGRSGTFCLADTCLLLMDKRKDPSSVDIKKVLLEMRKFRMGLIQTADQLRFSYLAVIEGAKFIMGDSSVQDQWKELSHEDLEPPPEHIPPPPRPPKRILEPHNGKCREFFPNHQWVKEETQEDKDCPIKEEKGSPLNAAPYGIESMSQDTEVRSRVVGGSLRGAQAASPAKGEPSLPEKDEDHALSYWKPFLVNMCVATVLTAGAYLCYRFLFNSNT
Kind of data set: Protein tyrosine phosphatase 1B inhibitory activity (malachite green, phosphorylated insulin receptor peptide substrate). Format: biochemical. To be noted: recombinant human PTP1B, 60 min room temperature, absorbance 650 nm. The method, then:
Preparation of Assay Buffer:
A 50 mM Tris-HCl buffer (pH 7.5), 50 mM NaCl and 3 mM dithiothreitol (DTT) were prepared.
[…] 0.1, 0.3, 1, 3 and 10 μM of the test compound were prepared and diluted with the above-mentioned assay buffer to the final dimethyl sulfoxide (DMSO) concentration of not more than 1%. As the control, the assay buffer was used.
Preparation of Substrate:
Recombinant human protein tyrosine phosphatase 1B (manufactured by UBI) was diluted with the above-mentioned assay buffer (1.2 ng/25 μl).
The sample (10 μl) prepared as mentioned above and a substrate (25 μl) were successively added to a 96 well plate, and the enzyme (25 μl) prepared as mentioned above was added and mixed. The mixture was incubated at room temperature for 60 min and a malachite green (120 μl, Biomol), which is a color reagent, was added. The mixture was further incubated at room temperature for 20 min to allow for color development. An absorbance at 650 nm was measured on a plate reader based on which the protein tyrosine phosphatase 1B inhibitory activity of the test compound was evaluated.

In general, IC50 refers to the concentration that gives 50% inhibition. By melting point is commonly meant the temperature, or range, at which the solid turns liquid. For the compound `CCCC(CCC)c1ccc(COc2ccc(-c3csc(CN4CCC(c5cccc(C(=O)O)c5)CC4)n3)cc2)cc1` [Example 1-162], the melting point was in the range of 187 to 189 °C. The concentration for half-maximal inhibition (IC50) in data set [1] is 0.21 µM.

In turn, `CCCC(CCC)c1ccc(OCc2ccc(-c3csc(COc4cc(C(=O)O)ccc4NC(=O)C(C)C)c3)cc2)cc1` [Example 4-57] registered a melting point of 153.7 to 154.9 °C. Besides, in data set [1], the IC50 is 0.17 µM.

As for `CCCC(CCC)c1ccc(OCc2ccc(-c3csc(COc4cc(C(=O)O)ccc4N)c3)cc2)cc1` [Example 4-61], the melting point lay within 156.5 to 165.5 °C. Also, in data set [1], the IC50 came out at 0.25 µM.

`CCN(C[C@H]1CC[C@H](c2ccc(C(C)(C)C)cc2)CC1)c1ccc(-c2csc(CN3CCC(c4ccc(C(=O)O)cc4)CC3)c2)cc1` [Example 4-68]: the melting point was 225 to 229 °C (dec.). In data set [1], the IC50 is less than 0.1 µM.

As for `CCCC(CCC)c1ccc(OCc2ccc(-c3ccc(C(=O)N(CC(=O)O)Cc4nc5ccccc5n4C)s3)cc2)cc1` [Example 4-42], the melting point fell in the range of 185 to 188 °C. Further, the IC50 in data set [1] amounted to 0.17 µM.

The compound `CCCC(CCC)c1ccc(OCc2ccc(-c3csc(CN(CC(=O)O)Cc4nccn4Cc4ccccc4)c3)cc2)cc1` [Example 4-89] showed a melting point of 135.2 to 136 °C. In addition, in data set [1], the 50% inhibitory concentration (IC50) came to 0.49 µM.

For the compound `CCCC(CCC)c1ccc(OCc2ccc(-c3csc(Cn4nc(C(=O)O)cc4C(C)(C)C)n3)cc2)cc1` [Example 1-178], the melting point was in the range of 195 to 196.5 °C. The IC50 in data set [1] was 0.44 µM.

For the compound `CN(C[C@H]1CC[C@H](c2ccc(Cl)cc2)CC1)c1ccc(-c2csc(CN3CCC(C(=O)O)(c4ccccc4)CC3)n2)cc1` [Example 3-70], the melting point was 167 to 170 °C (dec.). In data set [1], the IC50 was 0.16 µM.

`CCCC(CCC)c1ccc(OCc2ccc(-c3ccc(CN(CC(=O)O)Cc4ccc(OC)cc4)s3)cc2)cc1` [Example 4-77] gave a melting point of 195.7 to 196.8 °C. Besides, the IC50 in data set [1] was found to be 0.4 µM.

`CCCC(CCC)c1ccc(Cn2cc(-c3csc(COc4ccc(C(=O)O)cc4)n3)c3ccccc32)cc1` [Example 1-157] yielded a melting point of 199 to 200 °C. In addition, the IC50 in data set [1] was 0.17 µM.

`CCCC(CCC)c1ccc(OCc2ccc(-c3csc(CN(CC(=O)O)Cc4nc5ccccc5n4C)c3)cc2)cc1.O=S(=O)(O)O` [Example 4-55] yielded a melting point of 137.5 to 141.5 °C. Further, the IC50 in data set [1] was determined as 0.17 µM.

`CCCC(CCC)c1ccc(OCc2ccc(-c3ccc(CN(CC(=O)O)Cc4cc(-c5ccccc5)cs4)s3)cc2)cc1` [Example 4-98] showed a melting point of 181.4 to 184.5 °C. Moreover, the half-inhibitory concentration (IC50) in data set [1] is less than 0.1 µM.

For the compound `CCCC(CCC)c1ccc(OCc2ccc(-c3csc(CN(CC(=O)O)Cc4ccc(-n5ccnc5)cc4)c3)cc2)cc1` [Example 4-91], the melting point lay in the range of 167.5 to 169.9 °C. In addition, in data set [1], the half-inhibitory concentration (IC50) worked out at 0.17 µM.

Turning to `CCCC(CCC)c1ccc(OCc2ccc(-c3csc(CN4CCc5ccc(C(=O)O)cc5C4)n3)cc2)cc1` [Example 1-160], the melting point lay within 148.5 to 149.5 °C. Moreover, in data set [1], the IC50 was found to be 0.31 µM.

Take `Cl.O=C(O)C1(c2ccccc2)CCN(Cc2ccc(-c3cn(Cc4ccc(C5CCCCC5)cc4)c4ccccc34)s2)CC1` [Example 4-62]: the melting point lay within 227.3 to 233.6 °C. The IC50 in data set [1] was 0.45 µM.

In turn, `CN(Cc1ccc([C@H]2CC[C@H](C)CC2)cc1)c1ccc(-c2csc(CN3Cc4ccccc4CC3C(=O)O)n2)cc1` (stereo partly drawn) [Example 3-71] displayed a melting point of 202 to 205 °C. Further, the IC50 in data set [1] came to 0.095 µM.

For the compound `CCCC(CCC)c1ccc(OCc2ccc(-c3csc(CN(CC(=O)O)Cc4nc5ccccc5n4C)c3)cc2)cc1.Cl` [Example 4-54], the melting point lay in the range of 165.7 to 166.8 °C. Further, the concentration for half-maximal inhibition (IC50) in data set [1] worked out at 0.14 µM.

The compound `CCCC(CCC)c1ccc(OCc2cccc(-c3csc(CN4CCc5ccc(C(=O)O)cc5C4)c3)c2)cc1` [Example 4-73] gave a melting point of 69.4 to 78.3 °C. The half-maximal inhibitory concentration (IC50) in data set [1] amounted to 0.19 µM.

Take `CCCC(CCC)c1ccc(OCc2ccc(-c3csc(CN(CC(=O)O)Cc4ccc(-c5cccs5)s4)c3)cc2)cc1` [Example 4-93]: the melting point is 203.8 to 206.2 °C. Besides, the IC50 in data set [1] is less than 0.1 µM.

Compound `CCCC(CCC)c1ccc(OCc2ccc(-c3ccc(CN(CC(=O)O)Cc4ccc(SC)cc4)s3)cc2)cc1` [Example 4-78] yielded a melting point of 202.7 to 204.3 °C. In addition, the concentration for half-maximal inhibition (IC50) in data set [1] stood at 0.38 µM.

`CCCC(CCC)c1ccc(OCc2ccc(-c3ccc(C(=O)N4CCC(c5ccc(C(=O)O)cc5)CC4)s3)cc2)cc1` [Example 4-53] had a melting point of 176 to 178 °C. In data set [1], the IC50 was determined as 0.07 µM.

With `Cc1ccc(OCc2ccc(C3CCCCC3)cc2)c(-c2csc(CN(C(=O)C(=O)O)c3ccc4nc(C)sc4c3)c2)c1` [Example 4-104], the melting point was in the range of 115.9 to 121.1 °C. Besides, the IC50 in data set [1] was determined as 0.2 µM.

`CCCC(CCC)c1ccc(OCc2ccc(-c3csc(CN(CC(=O)O)C(=O)c4ccc(C(C)C)cc4)c3)cc2)cc1` [Example 4-70] gave a melting point of 109 to 111 °C. Further, the IC50 in data set [1] is 0.17 µM.

`CCCC(CCC)c1ccc(OCc2ccc(-c3csc(CSc4ccc(C(=O)O)cc4)c3)cc2)cc1` [Example 4-60] showed a melting point of 133.9 to 135.1 °C. Moreover, the concentration for half-maximal inhibition (IC50) in data set [1] was less than 0.1 µM.

Regarding `CCN(Cc1ccc(C2CCCCC2)cc1)c1ccc(-c2ccc(CN(CCOc3ccccc3)CC(=O)O)s2)cc1` [Example 4-67], the melting point is 141 to 144 °C. In addition, the IC50 in data set [1] was 0.23 µM.

`CCCC(CCC)c1ccc(OCc2ccc(-c3ccc(C(=O)N(CC(=O)O)Cc4ccc(C(C)C)cc4)s3)cc2)cc1` [Example 4-44] came in with a melting point of 134 to 136 °C. In data set [1], the 50% inhibitory concentration (IC50) was determined as 0.12 µM.

Compound `CCCC(CCC)c1ccc(OCc2ccc(-c3csc(CC4CCN(c5ccc(C(=O)O)cc5)CC4)n3)cc2)cc1` [Example 1-181] gave a melting point of 174 to 175 °C. The half-inhibitory concentration (IC50) in data set [1] turned out to be 0.2 µM.

Take `CCCC(CCC)c1ccc(OCc2ccc(-c3csc(CN(CC(=O)O)Cc4nc5ccccc5[nH]4)c3)cc2)cc1` [Example 4-6]: the melting point is 153 to 155 °C. The half-maximal inhibitory concentration (IC50) in data set [1] was found to be 0.092 µM.

Regarding `CCCC(CCC)c1ccc(OCc2ccc(-c3csc(COc4ccc(C(=O)O)cc4)c3)cc2)cc1` [Example 4-58], the melting point is 194.2 to 195.5 °C. Besides, the half-inhibitory concentration (IC50) in data set [1] stood at 0.19 µM.

On to `CCCC(CCC)c1ccc2c(c1)nc(-c1csc(COc3ccc(C(=O)O)cc3)n1)n2Cc1ccc(C(C)C)cc1` [Example 1-158], for which the melting point lay in the range of 147 to 152 °C. Also, the 50% inhibitory concentration (IC50) in data set [1] came to 0.29 µM.

With `Cl.O=C(O)CN(Cc1ccccc1)Cc1ccc(-c2cn(Cc3ccc(C4CCCCC4)cc3)c3ccccc23)s1` [Example 4-63], the melting point was in the range of 161 to 164.3 °C. Moreover, in data set [1], the IC50 came to 0.42 µM.

Regarding `CCCC(CCC)c1ccc(COc2ccc(-c3csc(CN4CCC(c5ccc(C(=O)O)cc5)CC4)n3)cc2)cc1` [Example 1-161], the melting point was 191 to 193 °C. For the same compound, the 50% inhibitory concentration (IC50) in data set [1] was 0.18 µM.

In the case of `CCCC(CCC)c1ccc(COc2ccc(-c3csc(CN4CCN(c5ccccc5C(=O)O)CC4)n3)cc2)cc1` [Example 1-155], the melting point was in the range of 137 to 138 °C. In addition, in data set [1], the IC50 is 0.37 µM.

Compound `CN(C[C@H]1CC[C@H](c2ccc(Cl)cc2)CC1)c1ccc(-c2csc(CN(CC(=O)O)Cc3ccccc3)n2)cc1` [Example 3-34] returned a melting point of 180 to 182 °C. Moreover, the half-maximal inhibitory concentration (IC50) in data set [1] amounted to 0.16 µM.

Regarding `CCCC(CCC)c1ccc(COc2ccc(-c3csc(CN4Cc5ccccc5C[C@H]4C(=O)O)n3)cc2)cc1` [Example 3-26], the melting point lay within 90 to 93 °C. In addition, the IC50 in data set [1] was found to be 0.11 µM.

As to `CCCC(CCC)c1ccc(OCc2ccc(-c3ccc(CN(CC(=O)O)Cc4nc5ccccc5o4)s3)cc2)cc1` [Example 4-96], the melting point lay within 127.4 to 130 °C. The IC50 in data set [1] worked out at 0.12 µM.

The compound `CCCC(CCC)c1ccc(OCc2ccc(-c3ccc(CN(CC(=O)O)Cc4c[nH]c(-c5ccccc5)n4)s3)cc2)cc1` [Example 4-94] registered a melting point of 131.8 to 137.6 °C. Moreover, the concentration for half-maximal inhibition (IC50) in data set [1] is 0.12 µM.

`CCCC(CCC)c1ccc(OCc2ccc(-c3ccc(CN(CC(=O)O)CC(=O)Nc4ccc(C(C)C)cc4)s3)cc2)cc1` [Example 4-9] showed a melting point of 172 to 174 °C. In addition, in data set [1], the IC50 amounted to 0.12 µM.

`CCCC(CCC)c1ccc(OCc2ccc(-c3csc(CN(CC(=O)O)Cc4nc5ccccc5n4C)c3)cc2)cc1` [Example 4-30]: the IC50 in data set [1] came out at 0.17 µM.

Turning to `CCCC(CCC)c1ccc(OCc2ccc(-c3ccc(C(=O)N4CCN(c5ccc(C(=O)O)cc5)CC4)s3)cc2)cc1` [Example 4-52], the IC50 in data set [1] turned out to be 0.15 µM.
